Measured values reported in patent publication US20170056336A1, “CO-TARGETING ANDROGEN RECEPTOR SPLICE VARIANTS AND MTOR SIGNALING PATHWAY FOR THE TREATMENT OF CASTRATION-RESISTANT PROSTATE CANCER” (British Columbia Cancer Agency Branch, priority 2015, published 2017).

Target: T1, FL-AR (Homo sapiens, UniProt P10275, T878A)
T1 sequence (P10275 1-920 T878A): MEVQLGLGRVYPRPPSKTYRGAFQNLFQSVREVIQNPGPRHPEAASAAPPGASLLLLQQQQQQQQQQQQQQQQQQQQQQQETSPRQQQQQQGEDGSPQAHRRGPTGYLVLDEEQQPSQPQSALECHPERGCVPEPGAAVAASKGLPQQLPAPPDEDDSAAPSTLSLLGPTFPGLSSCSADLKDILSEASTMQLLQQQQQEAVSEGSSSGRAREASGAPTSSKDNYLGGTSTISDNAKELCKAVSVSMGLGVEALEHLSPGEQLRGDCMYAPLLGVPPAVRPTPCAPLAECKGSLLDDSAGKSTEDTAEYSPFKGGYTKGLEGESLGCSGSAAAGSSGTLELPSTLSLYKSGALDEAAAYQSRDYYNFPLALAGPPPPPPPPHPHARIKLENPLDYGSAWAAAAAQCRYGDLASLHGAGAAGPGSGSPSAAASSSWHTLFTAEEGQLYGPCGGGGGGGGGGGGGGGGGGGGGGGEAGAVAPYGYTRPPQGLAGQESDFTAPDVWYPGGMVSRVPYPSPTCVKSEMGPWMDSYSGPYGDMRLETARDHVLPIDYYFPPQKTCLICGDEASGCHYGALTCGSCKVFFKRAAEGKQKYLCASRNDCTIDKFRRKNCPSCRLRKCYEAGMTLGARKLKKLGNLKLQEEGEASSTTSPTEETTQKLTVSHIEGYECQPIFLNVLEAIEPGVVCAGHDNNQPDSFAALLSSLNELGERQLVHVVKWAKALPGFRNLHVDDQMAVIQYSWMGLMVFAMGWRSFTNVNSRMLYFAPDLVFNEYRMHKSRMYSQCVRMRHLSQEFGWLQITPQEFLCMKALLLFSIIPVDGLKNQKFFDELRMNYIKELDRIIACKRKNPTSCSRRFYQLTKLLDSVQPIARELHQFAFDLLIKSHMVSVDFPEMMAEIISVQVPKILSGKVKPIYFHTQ
Assay: PSA-, ARR3-, PB-luciferase AR reporter assay in LNCaP cells

Question: `Cn1c(=O)n(-c2ccc(C(C)(C)C#N)cc2)c2c3cc(-c4cnc5ccccc5c4)ccc3ncc21` [BEZ-235, 2-methyl-2-[4-(3-methyl-2-oxo-8-quinolin-3-ylimidazo[4,5-c]quinolin-1-yl)phenyl]propanenitrile] was tested. Which “activity of FL-AR in response to androgen” value did it give?
Answer: did not enhance
